Experimental data: patent US5534554A, “Sucrose ester-C20 to C28 alcohol formulations” (priority 1994, dated 1996)
pEC50: −log10 of the molar value. Entries after “also recorded” stand apart in the source; their conditions may differ.

Key:
[1] = system: poliovirus; type: cell-based; settings: nonenveloped virus
[2] = system: Influenza A; experiment: Antiviral activity against influenza A; type: cell-based; settings: Table 6, human viruses
[3] = system: Friend Virus; experiment: Replication of Friend Virus in vitro in primary embryo fibroblast cultures; type: cell-based, murine
[4] = system: recurrent herpes labialis; experiment: Study A: Phase 2 study in recurrent herpes labialis; type: in vivo, human; settings: for time to healing, mean: 10% cream, all treatment episodes
Excerpt: (§1) Two clinical efficacy studies have been completed. Study A was a randomized, double-blind, placebo-controlled Phase 2 study in 63 patients (male and female) with recurrent herpes labialis. All of the 31 n-docosanol 10% cream-treated patients in the herpes labialis study, Study A, completed their treatment; 2 of those 31 patients reported a burning or stinging sensation after application of the cream. […] Study B was a randomized, double-blind, placebo-controlled trial in 44 female patients with recurrent herpes genitalis.
Sixty five patients (aged 18-60) took part in the Study A, 32 patients were initially randomized to receive 10% n-docosanol cream and 33 were initially randomized to receive placebo cream. Treatment was patient-initiated, and treatment initiation was defined as `early` if the treatment started at prodrome or erythema stage and as `late` if started at the papule stage or later. Two patients were excluded from the analysis. Of the 63 evaluable patients, 22 were entered into the cross-over phase of the study. In addition, 13 patients treated more than one episode with the same study medication. Therefore, a total of 98 herpes episodes--48 treated with 10% n-docosanol cream and 50 treated with placebo cream--were analyzed.

[5] = system: HSV-2; type: cell-based
[6] = system: HIV-1; experiment: HIV-1 replication in PHA/IL-2-stimulated human peripheral blood mononuclear cells (p24 ELISA); type: cell-based
Procedure: Human peripheral blood mononuclear cells were cultured in medium containing 1 μg/ml PHA plus 5 units/ml IL-2 alone or also containing 100 μg/ml PFA, […] F-68 control vehicle contained in the high dose of n-docosanol/Pluronic. After overnight incubation, the cultures were inoculated with HIV-1 at a multiplicity of infection of 1 virion/cell. After 24 hours incubation at 37° C., the cultures were washed and inoculated with fresh medium containing PHA and IL-2, but lacking inhibitor. Replication of HIV-1 was determined 4 days later by quantitation of viral antigens by a p24-specific ELISA for HIV-1.
Our initial studies on HIV were conducted in collaboration with a U.S. National Institutes of Health laboratory and one of several experiments of this type is summarized in FIG. 13. Normal human peripheral blood mononuclear cells were activated with […] PHA plus 5 units/ml of IL-2 in medium alone or in the presence of the n-docosanol, Pluronic F-68 control vehicle, or phosphonoformic acid (PFA). The next day, the cultures were inoculated with HIV-1 and examined 4 days later for evidence of viral replication by detection of the p24 viral antigen. […] The dose response of HIV-1 to n-docosanol indicates an ED 50 of about 6-9 mM.

[7] = system: Vero cells
[8] = system: Vero cells; experiment: Metabolism of n-[14C]-docosanol in Vero cells (TLC); settings: sodium azide and 2-deoxyglucose
[9] = system: Human Herpesvirus-6; experiment: Antiviral activity against human herpesvirus-6; type: cell-based
[10] = system: HSV-specific receptors; experiment: Binding of herpes virus to HSV-specific receptors on target cells; type: cell-based
Excerpt: The collective implications of the results of the studies are that the compound appears to interfere with one or more of the common pathways of viral entry into the cell and migration to the nucleus of infected target cells.

[11] = system: Respiratory Syncytial Virus; experiment: Antiviral activity against respiratory syncytial virus; type: cell-based; settings: Table 6, human viruses
[12] = system: HSV; experiment: Inhibition of HSV-induced plaques in Vero versus MDBK cells; type: cell-based
[13] = system: recurrent herpes genitalis; experiment: Study B: trial in female patients with recurrent herpes genitalis; type: in vivo, human; settings: all patients
Excerpt: as §1
In the first clinical study, sixty female patients with recurrent herpes genitalis entered the study while symptom-free and not in a prodromal stage. […]
Three pain analyses were conducted, based on patients' self-assessment of pain: time to sustained "no pain"; time to first "no pain"; and time to first reduction of pain. Time to sustained "no pain" was measured from the time of first pain at application to the time when 1 ) pain was scored as "no pain" for a minimum of 2 consecutive recordings; and 2) during the remainder of the episode, additional pain recordings were no more frequent and severe than 2 separated episodes of 2 consecutive recordings of "mild" pain. […] Time to first reduction in pain was measured from the time of first pain at application to the first time when a decrease in pain level was noted, relative to the previous assessment. […]

[14] = system: Cytomegalovirus; experiment: Antiviral activity against murine cytomegalovirus; type: cell-based, murine virus; settings: Table 6, murine viruses
[15] = system: reovirus; experiment: Antiviral activity against reovirus; type: cell-based; settings: nonenveloped virus

CCCCCCCCCCCCCCCCCCCCCCO [n-docosanol]
activity against poliovirus [1]: no detectable activity
susceptibility to antiviral activity: Influenza A [2]: susceptible
susceptibility to antiviral activity: Friend Leukemia Virus ([3]; Table 6, murine viruses): susceptible
activity against replication of Friend Virus in vitro ([3]; primary embryo fibroblast cultures): very potent activity
time to healing, mean ([4]; all treatments): 5.7 days
time to healing, mean ([4]; early treatment): 3.4 days
reduction in mean overall healing time versus placebo ([4]; all 98 episodes, P=0.02): 1.6 days
reduction in mean healing time ([4]; all episodes, early treatment, P=0.05): 3.3 days
difference in healing time, late treatment ([4]; cross-over portion, P=0.03): significant difference in favor of n-docosanol
internalization of HSV complete by 20 minutes ([5]; after shift to 37° C.): less than 40%
time to completion of internalization ([5]; after shift to 37° C.): more than 1 hour
persistence of bound HSV virions on the cell surface ([5]; in the presence of n-docosanol): remain on the cell surface for a prolonged time period
activity at the highest dose compared with PFA ([6]; FIG. 13): comparable to that observed with the very potent antiviral compound, phosphonoformic acid (PFA)
pEC50 ([6]; Human immunodeficiency virus 1, PBMC, dose response of HIV-1, read-out: ED 50 (the source's name)): 2.05 to 2.22
susceptibility to antiviral activity: HIV-1 ([6]; Table 6, human viruses): susceptible
inhibition of HIV-1 replication ([6]; n-docosanol/Pluronic, FIG. 13): dose-related inhibitory activity
antiviral HIV activity in Tetronic ([6]; suspended in Tetronic): even higher levels of antiviral HIV activity
fraction of total n-docosanol cell-associated [7]: less than 1%
molecules per cell [7]: ~8×10^9 molecules per cell
radioactive compound in cell membranes [7]: 75%
radioactive compound in nuclear fractions [7]: less than 1%
reversibility of cell association [7]: irreversible
time of peak uptake per cell [7]: 6 to 12 h
total uptake, Tetronic versus Pluronic suspension [7]: equivalent
reduction of metabolic conversion into polar metabolites by energy poisons [8]: 80%
inhibition of in vitro replication of human herpes virus 6 [9]: inhibits in vitro replication
susceptibility to antiviral activity: Human Herpesvirus-6 ([9]; Table 6, human viruses): susceptible
effect on viral binding to receptors [10]: does not interfere with binding of herpes virus; also recorded: no effect
susceptibility to antiviral activity: Respiratory Syncytial Virus [11]: susceptible
effectiveness in inhibiting HSV-induced plaques, Vero relative to MDBK cells [12]: 3-4 fold
average healing time based on patient ratings ([13]; 10% cream, placebo 4.5): 5.6 days
difference in mean time to healing versus placebo ([13]; p=0.2703): no statistically significant difference
susceptibility to antiviral activity: Cytomegalovirus [14]: susceptible
activity against reovirus [15]: no detectable activity
